According to patent US12281122B1, “PI3K inhibitors” (Cogent Biosciences, Inc., priority 2023, dated 2025):

Assays:
[1] = system: T47D (PI3Kα-H1047R) cell line; experiment: HTRF phospho-AKT(S473) cell assay in T47D cells; type: cell-based, human
Summary of the method: (§1)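 T47D (PI3Kα-H1047R; RPMI, 10% FBS, insulin) and SKBR3 (wild-type PI3Kα; McCoy's 5A, 10% FBS) cells treated 2 h at 37 °C with 12-point 1:3 dilutions, top 5 μM and 10 μM respectively, ≤0.5% DMSO. SKBR3 stimulated with 70 ng/ml PDGF-BB for the last 15 min; lysate pAKT(S473) by HTRF, IC50 from curves.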

[2] = system: SKBR3 (PI3Kα-Wild Type) cell line; experiment: HTRF phospho-AKT(S473) cell assay in SKBR3 cells; type: cell-based, human
Summary of the method: as §1

[3] = Homo sapiens; T47D (PI3Kα-H1047R) cells, HTRF phospho-AKT(S473), 2 hours compound incubation
[4] = Homo sapiens, SK-BR-3; SKBR3 (PI3Kα-Wild Type) cells, HTRF phospho-AKT(S473), 2 hours compound incubation, PDGF-BB stimulated
[5] = Homo sapiens; HTRF phospho-AKT(S473), T47D (PI3Kα-H1047R) cells, 2 hours compound incubation
[6] = Homo sapiens, SK-BR-3; HTRF phospho-AKT(S473), SKBR3 (PI3Kα-Wild Type) cells, 2 hours compound incubation, PDGF-BB stimulated

Compound	IC50 [1, 3]	IC50 [2, 4]	IC50 [1, 5]	IC50 [2, 6]
Cc1ccc(C2CCN(c3nc4c([C@@H](C)Nc5ccc(Cl)nc5C(=O)NS(C)(=O)=O)cc(F)cc4c(=O)n3C)CC2)cn1 [Compound 365, (R)-6-chloro-3-((1-(6-fluoro-3-methyl-2-(4-(6-methylpyridin-3-yl)piperidin-1-yl)-4-oxo-3,4-dihydroquinazolin-8-yl)ethyl)amino)-N-(methylsulfonyl) picolinamide]	< 250 nM	1000 to 5000 nM	–	–
Cc1cc([C@@H](C)Nc2ccc(Cl)nc2C(=O)NS(C)(=O)=O)c2nc(C3CCCN(c4ncc(F)cn4)C3)n(C)c(=O)c2c1 (mixture of isomers) [Compound 748, 6-chloro-3-(((1R)-1-(2-(1-(5-fluoropyrimidin-2-yl)piperidin-3-yl)-3,6-dimethyl-4-oxo-3,4-dihydroquinazolin-8-yl)ethyl)amino)-N-(methylsulfonyl) picolinamide]	–	–	500 to 1000 nM	≥ 5000 nM
Cc1cc([C@@H](C)Nc2ccc(Cl)nc2C(=O)NS(C)(=O)=O)c2nc(N3[C@@H]4CC[C@H]3C[C@H](c3ccn(C)n3)C4)n(C)c(=O)c2c1 [Compound 342, 6-chloro-3-(((R)-1-(3,6-dimethyl-2-((1R,3S,5S)-3-(1-methyl-1H-pyrazol-3-yl)-8-azabicyclo[3.2.1]octan-8-yl)-4-oxo-3,4-dihydroquinazolin-8-yl)ethyl)amino)-N-(methylsulfonyl) picolinamide]	< 250 nM	1000 to 5000 nM	–	–
Cc1cc([C@@H](C)Nc2ccc(Cl)nc2C(=O)NS(C)(=O)=O)c2nc(N3CCC(c4nc(C(F)F)n(C)n4)CC3)n(C)c(=O)c2c1 [Compound 434, (R)-6-chloro-3-((1-(2-(4-(5-(difluoromethyl)-1-methyl-1H-1,2,4-triazol-3-yl)piperidin-1-yl)-3,6-dimethyl-4-oxo-3,4-dihydroquinazolin-8-yl)ethyl)amino)-N-(methylsulfonyl) picolinamide]	500 to 1000 nM	≥ 5000 nM	–	–
Cc1cc([C@@H](C)Nc2ccc(Cl)nc2C(=O)NS(C)(=O)=O)c2nc(N3C[C@@H]4[C@H](C3)[C@H]4n3cc(C)cn3)n(C)c(=O)c2c1 [Compound 491, 6-chloro-3-(((R)-1-(3,6-dimethyl-2-((1R,5S,6S)-6-(4-methyl-1H-pyrazol-1-yl)-3-azabicyclo[3.1.0]hexan-3-yl)-4-oxo-3,4-dihydroquinazolin-8-yl)ethyl)amino)-N-(methylsulfonyl) picolinamide]	–	–	250 to 500 nM	1000 to 5000 nM
CCn1cc(F)c(C2CCN(c3nc4c([C@@H](C)Nc5ccc(Cl)nc5C(=O)NS(C)(=O)=O)cc(C)cc4c(=O)n3C)CC2)n1 [Compound 758, (R)-6-chloro-3-((1-(2-(4-(1-ethyl-4-fluoro-1H-pyrazol-3-yl)piperidin-1-yl)-3,6-dimethyl-4-oxo-3,4-dihydroquinazolin-8-yl)ethyl)amino)-N-(methylsulfonyl) picolinamide]	–	–	250 to 500 nM	≥ 5000 nM
Cc1cc([C@@H](C)Nc2ccc(Cl)nc2C(=O)NS(C)(=O)=O)c2nc(N3CCC(c4ccn(-c5cccnc5)n4)CC3)n(C)c(=O)c2c1 [Compound 312, (R)-6-chloro-3-((1-(3,6-dimethyl-4-oxo-2-(4-(1-(pyridin-3-yl)-1H-pyrazol-3-yl)piperidin-1-yl)-3,4-dihydroquinazolin-8-yl)ethyl)amino)-N-(methylsulfonyl) picolinamide]	< 250 nM	1000 to 5000 nM	–	–

Now from value to molecule:

IC50 [1, 3]	IC50 [2, 4]	IC50 [1, 5]	IC50 [2, 6]	Compound
–	–	< 250 nM	1000 to 5000 nM	Cc1cc([C@@H](C)Nc2ccc(Cl)nc2C(=O)NS(C)(=O)=O)c2nc(N3CCC(c4ccn(C5COC5)n4)CC3)n(C)c(=O)c2c1 [Compound 447, (R)-6-chloro-3-((1-(3,6-dimethyl-2-(4-(1-(oxetan-3-yl)-1H-pyrazol-3-yl)piperidin-1-yl)-4-oxo-3,4-dihydroquinazolin-8-yl)ethyl)amino)-N-(methylsulfonyl) picolinamide]
–	–	250 to 500 nM	≥ 5000 nM	Cc1cc([C@@H](C)Nc2ccc(Cl)nc2C(=O)NS(C)(=O)=O)c2nc(N3CCC(c4ccnn4C(F)(F)F)CC3)n(C)c(=O)c2c1 [Compound 446, (R)-6-chloro-3-((1-(3,6-dimethyl-4-oxo-2-(4-(1-(trifluoromethyl)-1H-pyrazol-5-yl)piperidin-1-yl)-3,4-dihydroquinazolin-8-yl)ethyl)amino)-N-(methylsulfonyl) picolinamide]
–	–	250 to 500 nM	≥ 5000 nM	Cc1cc([C@@H](C)Nc2ccc(Cl)nc2C(=O)NS(C)(=O)=O)c2nc(N3CCC[C@@H](c4ccnn4C(F)F)C3)n(C)c(=O)c2c1 (relative stereo) [Compound 771, 6-chloro-3-(((R)-1-(2-((R*)-3-(1-(difluoromethyl)-1H-pyrazol-5-yl)piperidin-1-yl)-3,6-dimethyl-4-oxo-3,4-dihydroquinazolin-8-yl)ethyl)amino)-N-(methylsulfonyl) picolinamide]
–	–	250 to 500 nM	≥ 5000 nM	Cc1cc([C@@H](C)Nc2ccc(Cl)nc2C(=O)NS(C)(=O)=O)c2nc(N3CC[C@H](N(C)c4ncc(Cl)cn4)C3)n(C)c(=O)c2c1 [Compound 740, 6-chloro-3-(((R)-1-(2-((S)-3-((5-chloropyrimidin-2-yl)(methyl)amino)pyrrolidin-1-yl)-3,6-dimethyl-4-oxo-3,4-dihydroquinazolin-8-yl)ethyl)amino)-N-(methylsulfonyl) picolinamide]
–	–	250 to 500 nM	≥ 5000 nM	COc1cc(C2CCN(c3nc4c([C@@H](C)Nc5ccc(Cl)nc5C(=O)NS(C)(=O)=O)cc(C)cc4c(=O)n3C)CC2)ccn1 [Compound 640, (R)-6-chloro-3-((1-(2-(4-(2-methoxypyridin-4-yl)piperidin-1-yl)-3,6-dimethyl-4-oxo-3,4-dihydroquinazolin-8-yl)ethyl)amino)-N-(methylsulfonyl) picolinamide]
–	–	250 to 500 nM	≥ 5000 nM	Cc1cc([C@@H](C)Nc2ccc(Cl)nc2C(=O)NS(C)(=O)=O)c2nc(N3Cc4cccc(-c5cncn5C)c4C3)n(C)c(=O)c2c1 [Compound 674, (R)-6-chloro-3-((1-(3,6-dimethyl-2-(4-(1-methyl-1H-imidazol-5-yl)isoindolin-2-yl)-4-oxo-3,4-dihydroquinazolin-8-yl)ethyl)amino)-N-(methylsulfonyl) picolinamide]
–	–	250 to 500 nM	1000 to 5000 nM	Cc1cc([C@@H](C)Nc2ccc(Cl)nc2C(=O)NS(C)(=O)=O)c2nc(-c3ccc4cn(C)nc4c3)n(C)c(=O)c2c1 [Compound 835, (R)-6-chloro-3-((1-(3,6-dimethyl-2-(2-methyl-2H-indazol-6-yl)-4-oxo-3,4-dihydroquinazolin-8-yl)ethyl)amino)-N-(methylsulfonyl) picolinamide]
–	–	< 250 nM	1000 to 5000 nM	Cc1cc([C@@H](C)Nc2ccc(Cl)nc2C(=O)NS(C)(=O)=O)c2nc(N3C[C@@H]4[C@H](C3)[C@H]4c3cn(CC(F)(F)F)nn3)n(C)c(=O)c2c1 [Compound 478, 6-chloro-3-(((R)-1-(3,6-dimethyl-4-oxo-2-((1R,5S,6R)-6-(1-(2,2,2-trifluoroethyl)-1H-1,2,3-triazol-4-yl)-3-azabicyclo[3.1.0]hexan-3-yl)-3,4-dihydroquinazolin-8-yl)ethyl)amino)-N-(methylsulfonyl) picolinamide]
